Source: the NIST ThermoML archive (doi:10.1021/je300358u)
Numbers after ± are expanded uncertainties.

Assays:
[1] = 101 kPa, Liquid
[2] = xn = mol fraction of the nth substance listed; settings: 101 kPa, Liquid
[3] = mn = molality of the nth substance listed, in mol/kg; settings: 101 kPa, Liquid

Structure (SMILES): CN(C)C=O [dimethylformamide]
- mass density ([1]; 293.15 K): 948.742 ± 0.38 kg/m3
- mass density ([1]; 298.15 K): 943.976 ± 0.39 kg/m3
- mass density ([1]; 303.15 K): 939.201 ± 0.4 kg/m3
- mass density ([1]; 308.15 K): 934.425 ± 0.4 kg/m3

Structure (SMILES): CN(C)C=O [dimethylformamide] + O
- mass density ([2]; 293.15 K, x2 = 0): 948.742 ± 0.38 kg/m3
- mass density ([2]; 293.15 K, x2 = 0.1): 953.736 ± 0.35 kg/m3
- mass density ([2]; 293.15 K, x2 = 0.2): 959.305 ± 0.31 kg/m3
- mass density ([2]; 293.15 K, x2 = 0.3): 965.7 ± 0.28 kg/m3
- mass density ([2]; 293.15 K, x2 = 0.4): 972.992 ± 0.25 kg/m3
- mass density ([2]; 293.15 K, x2 = 0.5): 980.854 ± 0.22 kg/m3
- mass density ([2]; 293.15 K, x2 = 0.6): 988.587 ± 0.19 kg/m3
- mass density ([2]; 293.15 K, x2 = 0.7): 995.526 ± 0.16 kg/m3
- mass density ([2]; 293.15 K, x2 = 0.8): 999.822 ± 0.14 kg/m3
- mass density ([2]; 293.15 K, x2 = 0.9): 999.742 ± 0.13 kg/m3
- mass density ([2]; 293.15 K, x2 = 0.92): 999.208 ± 0.13 kg/m3
- mass density ([2]; 293.15 K, x2 = 0.94): 998.608 ± 0.13 kg/m3
- mass density ([2]; 293.15 K, x2 = 0.96): 998.059 ± 0.13 kg/m3
- mass density ([2]; 293.15 K, x2 = 0.98): 997.768 ± 0.13 kg/m3
- mass density ([2]; 298.15 K, x2 = 0): 943.976 ± 0.39 kg/m3
- mass density ([2]; 298.15 K, x2 = 0.1): 948.984 ± 0.35 kg/m3
- mass density ([2]; 298.15 K, x2 = 0.2): 954.568 ± 0.32 kg/m3
- mass density ([2]; 298.15 K, x2 = 0.3): 960.987 ± 0.29 kg/m3
- mass density ([2]; 298.15 K, x2 = 0.4): 968.301 ± 0.25 kg/m3
- mass density ([2]; 298.15 K, x2 = 0.5): 976.205 ± 0.23 kg/m3
- mass density ([2]; 298.15 K, x2 = 0.6): 984.021 ± 0.2 kg/m3
- mass density ([2]; 298.15 K, x2 = 0.7): 991.172 ± 0.17 kg/m3
- mass density ([2]; 298.15 K, x2 = 0.8): 995.944 ± 0.15 kg/m3
- mass density ([2]; 298.15 K, x2 = 0.9): 996.891 ± 0.14 kg/m3
- mass density ([2]; 298.15 K, x2 = 0.92): 996.65 ± 0.14 kg/m3
- mass density ([2]; 298.15 K, x2 = 0.94): 996.378 ± 0.14 kg/m3
- mass density ([2]; 298.15 K, x2 = 0.96): 996.181 ± 0.14 kg/m3
- mass density ([2]; 298.15 K, x2 = 0.98): 996.264 ± 0.13 kg/m3
- mass density ([2]; 303.15 K, x2 = 0): 939.201 ± 0.4 kg/m3
- mass density ([2]; 303.15 K, x2 = 0.1): 944.221 ± 0.36 kg/m3
- mass density ([2]; 303.15 K, x2 = 0.2): 949.818 ± 0.33 kg/m3
- mass density ([2]; 303.15 K, x2 = 0.3): 956.248 ± 0.29 kg/m3
- mass density ([2]; 303.15 K, x2 = 0.4): 963.582 ± 0.26 kg/m3
- mass density ([2]; 303.15 K, x2 = 0.5): 971.522 ± 0.23 kg/m3
- mass density ([2]; 303.15 K, x2 = 0.6): 979.424 ± 0.2 kg/m3
- mass density ([2]; 303.15 K, x2 = 0.7): 986.773 ± 0.18 kg/m3
- mass density ([2]; 303.15 K, x2 = 0.8): 992.004 ± 0.16 kg/m3
- mass density ([2]; 303.15 K, x2 = 0.9): 993.926 ± 0.14 kg/m3
- mass density ([2]; 303.15 K, x2 = 0.92): 993.962 ± 0.14 kg/m3
- mass density ([2]; 303.15 K, x2 = 0.94): 993.992 ± 0.14 kg/m3
- mass density ([2]; 303.15 K, x2 = 0.96): 994.123 ± 0.14 kg/m3
- mass density ([2]; 303.15 K, x2 = 0.98): 994.548 ± 0.14 kg/m3
- mass density ([2]; 308.15 K, x2 = 0): 934.425 ± 0.4 kg/m3
- mass density ([2]; 308.15 K, x2 = 0.1): 939.444 ± 0.36 kg/m3
- mass density ([2]; 308.15 K, x2 = 0.2): 945.04 ± 0.33 kg/m3
- mass density ([2]; 308.15 K, x2 = 0.3): 951.488 ± 0.3 kg/m3
- mass density ([2]; 308.15 K, x2 = 0.4): 958.821 ± 0.27 kg/m3
- mass density ([2]; 308.15 K, x2 = 0.5): 966.807 ± 0.24 kg/m3
- mass density ([2]; 308.15 K, x2 = 0.6): 974.79 ± 0.21 kg/m3
- mass density ([2]; 308.15 K, x2 = 0.7): 982.324 ± 0.18 kg/m3
- mass density ([2]; 308.15 K, x2 = 0.8): 988.003 ± 0.16 kg/m3
- mass density ([2]; 308.15 K, x2 = 0.9): 990.852 ± 0.15 kg/m3
- mass density ([2]; 308.15 K, x2 = 0.92): 991.147 ± 0.15 kg/m3
- mass density ([2]; 308.15 K, x2 = 0.94): 991.46 ± 0.14 kg/m3
- mass density ([2]; 308.15 K, x2 = 0.96): 991.894 ± 0.14 kg/m3
- mass density ([2]; 308.15 K, x2 = 0.98): 992.639 ± 0.14 kg/m3

Structure (SMILES): NC(N)=O [urea] + CN(C)C=O
- mass density ([3]; 293.15 K, m1 = 0.02524): 949.268 ± 0.26 kg/m3
- mass density ([3]; 293.15 K, m1 = 0.05973): 949.989 ± 0.26 kg/m3
- mass density ([3]; 293.15 K, m1 = 0.07556): 950.317 ± 0.26 kg/m3
- mass density ([3]; 293.15 K, m1 = 0.1157): 951.155 ± 0.26 kg/m3
- mass density ([3]; 293.15 K, m1 = 0.1479): 951.829 ± 0.25 kg/m3
- mass density ([3]; 293.15 K, m1 = 0.1749): 952.395 ± 0.25 kg/m3
- mass density ([3]; 293.15 K, m1 = 0.2003): 952.924 ± 0.25 kg/m3
- mass density ([3]; 293.15 K, m1 = 0.2305): 953.553 ± 0.25 kg/m3
- mass density ([3]; 298.15 K, m1 = 0.02524): 944.504 ± 0.27 kg/m3
- mass density ([3]; 298.15 K, m1 = 0.05973): 945.228 ± 0.26 kg/m3
- mass density ([3]; 298.15 K, m1 = 0.07556): 945.556 ± 0.26 kg/m3
- mass density ([3]; 298.15 K, m1 = 0.1157): 946.396 ± 0.26 kg/m3
- mass density ([3]; 298.15 K, m1 = 0.1479): 947.074 ± 0.26 kg/m3
- mass density ([3]; 298.15 K, m1 = 0.1749): 947.644 ± 0.26 kg/m3
- mass density ([3]; 298.15 K, m1 = 0.2003): 948.173 ± 0.26 kg/m3
- mass density ([3]; 298.15 K, m1 = 0.2305): 948.805 ± 0.26 kg/m3
- mass density ([3]; 303.15 K, m1 = 0.02524): 939.731 ± 0.27 kg/m3
- mass density ([3]; 303.15 K, m1 = 0.05973): 940.469 ± 0.27 kg/m3
- mass density ([3]; 303.15 K, m1 = 0.07556): 940.781 ± 0.27 kg/m3
- mass density ([3]; 303.15 K, m1 = 0.1157): 941.642 ± 0.27 kg/m3
- mass density ([3]; 303.15 K, m1 = 0.1479): 942.307 ± 0.27 kg/m3
- mass density ([3]; 303.15 K, m1 = 0.1749): 942.893 ± 0.27 kg/m3
- mass density ([3]; 303.15 K, m1 = 0.2003): 943.423 ± 0.27 kg/m3
- mass density ([3]; 303.15 K, m1 = 0.2305): 944.061 ± 0.27 kg/m3
- mass density ([3]; 308.15 K, m1 = 0.02524): 934.955 ± 0.28 kg/m3
- mass density ([3]; 308.15 K, m1 = 0.05973): 935.685 ± 0.28 kg/m3
- mass density ([3]; 308.15 K, m1 = 0.07556): 936.015 ± 0.28 kg/m3
- mass density ([3]; 308.15 K, m1 = 0.1157): 936.861 ± 0.28 kg/m3
- mass density ([3]; 308.15 K, m1 = 0.1479): 937.543 ± 0.28 kg/m3
- mass density ([3]; 308.15 K, m1 = 0.1749): 938.117 ± 0.27 kg/m3
- mass density ([3]; 308.15 K, m1 = 0.2003): 938.649 ± 0.27 kg/m3
- mass density ([3]; 308.15 K, m1 = 0.2305): 939.284 ± 0.27 kg/m3

Structure (SMILES): NC(N)=O [urea] + O
- mass density ([3]; 293.15 K, m1 = 0.02557): 998.624 ± 0.18 kg/m3
- mass density ([3]; 293.15 K, m1 = 0.05326): 999.077 ± 0.18 kg/m3
- mass density ([3]; 293.15 K, m1 = 0.07468): 999.427 ± 0.18 kg/m3
- mass density ([3]; 293.15 K, m1 = 0.09388): 999.747 ± 0.18 kg/m3
- mass density ([3]; 293.15 K, m1 = 0.1236): 1000.23 ± 0.18 kg/m3
- mass density ([3]; 293.15 K, m1 = 0.1442): 1000.57 ± 0.18 kg/m3
- mass density ([3]; 293.15 K, m1 = 0.1762): 1001.1 ± 0.18 kg/m3
- mass density ([3]; 293.15 K, m1 = 0.2005): 1001.5 ± 0.18 kg/m3
- mass density ([3]; 298.15 K, m1 = 0.02557): 997.458 ± 0.18 kg/m3
- mass density ([3]; 298.15 K, m1 = 0.05326): 997.903 ± 0.18 kg/m3
- mass density ([3]; 298.15 K, m1 = 0.07468): 998.251 ± 0.18 kg/m3
- mass density ([3]; 298.15 K, m1 = 0.09388): 998.559 ± 0.18 kg/m3
- mass density ([3]; 298.15 K, m1 = 0.1236): 999.04 ± 0.18 kg/m3
- mass density ([3]; 298.15 K, m1 = 0.1442): 999.367 ± 0.18 kg/m3
- mass density ([3]; 298.15 K, m1 = 0.1762): 999.891 ± 0.18 kg/m3
- mass density ([3]; 298.15 K, m1 = 0.2005): 1000.28 ± 0.18 kg/m3
- mass density ([3]; 303.15 K, m1 = 0.02557): 996.057 ± 0.19 kg/m3
- mass density ([3]; 303.15 K, m1 = 0.05326): 996.499 ± 0.19 kg/m3
- mass density ([3]; 303.15 K, m1 = 0.07468): 996.841 ± 0.18 kg/m3
- mass density ([3]; 303.15 K, m1 = 0.09388): 997.145 ± 0.18 kg/m3
- mass density ([3]; 303.15 K, m1 = 0.1236): 997.618 ± 0.18 kg/m3
- mass density ([3]; 303.15 K, m1 = 0.1442): 997.949 ± 0.18 kg/m3
- mass density ([3]; 303.15 K, m1 = 0.1762): 998.455 ± 0.18 kg/m3
- mass density ([3]; 303.15 K, m1 = 0.2005): 998.84 ± 0.18 kg/m3
- mass density ([3]; 308.15 K, m1 = 0.02557): 994.437 ± 0.19 kg/m3
- mass density ([3]; 308.15 K, m1 = 0.05326): 994.868 ± 0.19 kg/m3
- mass density ([3]; 308.15 K, m1 = 0.07468): 995.206 ± 0.19 kg/m3
- mass density ([3]; 308.15 K, m1 = 0.09388): 995.501 ± 0.19 kg/m3
- mass density ([3]; 308.15 K, m1 = 0.1236): 995.97 ± 0.19 kg/m3
- mass density ([3]; 308.15 K, m1 = 0.1442): 996.288 ± 0.19 kg/m3
- mass density ([3]; 308.15 K, m1 = 0.1762): 996.793 ± 0.19 kg/m3
- mass density ([3]; 308.15 K, m1 = 0.2005): 997.172 ± 0.18 kg/m3
